# Measurements: ChEMBL document CHEMBL5346971, “Discovery of the First Irreversible HDAC6 Isoform Selective Inhibitor with Potent Anti-Multiple Myeloma Activity” (J Med Chem, 2023)
# pIC50: −log10 of the molar value. Calls of active or inactive are those of the source. The calls are words filed in the database; no cut-off is given here.
# How the values were obtained:
# RPMI-8226 [1] = assay: Induction of apoptosis in human RPMI-8226 cells assessed as proportion of necrotic cells at 0.5 uM incubated for 24 hrs by AnnexinV-FITC/PI staining based flow cytometry (reference value: 0.49%); assay type: functional, cell-based
# [2] = Metabolic stability of the compound in rat liver microsomes assessed as parent compound remaining measured after 60 mins in presence of NADPH by LC-MS/MS analysis; assay type: ADME, Microsome; conditions: read-out: Stability
# Histone deacetylase 5 = Histone deacetylase 5 (Homo sapiens, UniProt Q9UQL6); assay: Inhibition of C-terminal His-tagged human recombinant HDAC5 catalytic domain (656 to 1122 residues) expressed in baculovirus-infected Sf9 cells using Boc-Lys(trifluoroacety1)-AMC as substrate preincubated with enzyme for 1 hr followed by substrate addition and measured after 30 mins by fluorescence based analysis
# Histone deacetylase 5, sequence (Q9UQL6 whole entry, the tested form may be a part): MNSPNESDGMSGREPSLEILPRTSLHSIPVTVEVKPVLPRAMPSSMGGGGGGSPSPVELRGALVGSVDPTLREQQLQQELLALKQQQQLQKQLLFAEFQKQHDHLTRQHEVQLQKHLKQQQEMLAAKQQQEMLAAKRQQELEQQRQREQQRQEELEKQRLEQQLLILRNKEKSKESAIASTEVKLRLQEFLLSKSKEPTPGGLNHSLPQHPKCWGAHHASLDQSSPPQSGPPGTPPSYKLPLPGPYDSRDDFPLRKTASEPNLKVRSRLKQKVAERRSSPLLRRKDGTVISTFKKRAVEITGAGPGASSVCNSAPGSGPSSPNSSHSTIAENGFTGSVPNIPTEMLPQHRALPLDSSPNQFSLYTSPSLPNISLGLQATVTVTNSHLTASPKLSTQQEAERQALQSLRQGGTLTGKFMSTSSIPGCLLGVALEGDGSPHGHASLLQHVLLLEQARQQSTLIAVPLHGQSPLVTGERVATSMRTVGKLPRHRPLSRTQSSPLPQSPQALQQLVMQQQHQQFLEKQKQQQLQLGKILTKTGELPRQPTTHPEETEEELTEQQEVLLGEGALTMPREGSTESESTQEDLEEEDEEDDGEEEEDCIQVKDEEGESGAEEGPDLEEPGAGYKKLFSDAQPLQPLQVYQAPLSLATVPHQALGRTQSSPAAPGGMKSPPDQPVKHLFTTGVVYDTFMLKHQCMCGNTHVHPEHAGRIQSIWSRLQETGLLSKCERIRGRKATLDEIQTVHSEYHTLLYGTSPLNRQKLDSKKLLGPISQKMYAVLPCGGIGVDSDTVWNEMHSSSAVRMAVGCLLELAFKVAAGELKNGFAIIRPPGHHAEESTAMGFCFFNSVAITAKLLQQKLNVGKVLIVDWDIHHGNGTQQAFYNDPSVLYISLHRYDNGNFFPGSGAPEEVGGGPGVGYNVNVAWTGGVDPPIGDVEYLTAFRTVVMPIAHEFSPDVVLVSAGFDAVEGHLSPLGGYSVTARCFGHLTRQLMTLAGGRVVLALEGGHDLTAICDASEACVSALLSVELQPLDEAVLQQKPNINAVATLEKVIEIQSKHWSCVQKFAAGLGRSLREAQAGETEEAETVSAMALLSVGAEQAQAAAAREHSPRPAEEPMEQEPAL
# RPMI-8226 [3] = assay: Antitumor activity against human RPMI-8226 cells xenografted in NCG mouse assessed as T/C ratio at 10 ug administered intratumorally every 2 days by vernier caliper analysis; assay type: functional; conditions: dose 10 µg; route it(Intratumoral)
# [4] = molecular target: Class 1 histone deacetylase (Homo sapiens) (UniProt Q13547+O15379+Q92769+Q9BY41); assay: Irreversible inhibition of class 1 HDAC in human A549 cells assessed as acetyl histone H3 level at 0.4 uM incubated for 5 hrs followed by drug wash-out for 6 hrs by western blot analysis relative to control; assay type: cell-based
# Class 1 histone deacetylase (Homo sapiens), sequence (O15379 whole entry, looked up): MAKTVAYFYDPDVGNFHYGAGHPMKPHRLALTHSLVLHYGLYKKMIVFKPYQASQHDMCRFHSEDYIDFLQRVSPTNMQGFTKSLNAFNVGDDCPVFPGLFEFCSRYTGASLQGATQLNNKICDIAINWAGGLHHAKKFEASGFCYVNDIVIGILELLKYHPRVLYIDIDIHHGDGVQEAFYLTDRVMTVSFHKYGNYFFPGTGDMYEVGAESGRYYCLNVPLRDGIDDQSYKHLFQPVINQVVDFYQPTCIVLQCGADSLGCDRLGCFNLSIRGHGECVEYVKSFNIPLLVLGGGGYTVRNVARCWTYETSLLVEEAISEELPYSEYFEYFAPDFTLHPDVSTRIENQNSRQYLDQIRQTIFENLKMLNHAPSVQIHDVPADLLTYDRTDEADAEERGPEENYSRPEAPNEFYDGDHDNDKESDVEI
# Class 1 histone deacetylase (Homo sapiens), sequence (Q13547 whole entry, looked up): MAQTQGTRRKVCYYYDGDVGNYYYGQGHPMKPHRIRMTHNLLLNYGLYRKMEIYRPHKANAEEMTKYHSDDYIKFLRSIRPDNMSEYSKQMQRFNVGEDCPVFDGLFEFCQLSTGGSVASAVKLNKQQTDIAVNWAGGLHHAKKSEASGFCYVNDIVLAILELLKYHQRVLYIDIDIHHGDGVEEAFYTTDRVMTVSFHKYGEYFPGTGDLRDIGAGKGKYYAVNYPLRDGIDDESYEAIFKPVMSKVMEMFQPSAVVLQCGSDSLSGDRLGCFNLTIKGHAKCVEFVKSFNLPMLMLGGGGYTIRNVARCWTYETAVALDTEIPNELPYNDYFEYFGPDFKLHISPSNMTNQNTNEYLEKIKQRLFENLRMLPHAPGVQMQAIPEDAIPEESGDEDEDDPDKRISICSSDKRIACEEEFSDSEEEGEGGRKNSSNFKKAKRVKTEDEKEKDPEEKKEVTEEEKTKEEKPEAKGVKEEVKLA
# Class 1 histone deacetylase (Homo sapiens), sequence (Q92769 whole entry, looked up): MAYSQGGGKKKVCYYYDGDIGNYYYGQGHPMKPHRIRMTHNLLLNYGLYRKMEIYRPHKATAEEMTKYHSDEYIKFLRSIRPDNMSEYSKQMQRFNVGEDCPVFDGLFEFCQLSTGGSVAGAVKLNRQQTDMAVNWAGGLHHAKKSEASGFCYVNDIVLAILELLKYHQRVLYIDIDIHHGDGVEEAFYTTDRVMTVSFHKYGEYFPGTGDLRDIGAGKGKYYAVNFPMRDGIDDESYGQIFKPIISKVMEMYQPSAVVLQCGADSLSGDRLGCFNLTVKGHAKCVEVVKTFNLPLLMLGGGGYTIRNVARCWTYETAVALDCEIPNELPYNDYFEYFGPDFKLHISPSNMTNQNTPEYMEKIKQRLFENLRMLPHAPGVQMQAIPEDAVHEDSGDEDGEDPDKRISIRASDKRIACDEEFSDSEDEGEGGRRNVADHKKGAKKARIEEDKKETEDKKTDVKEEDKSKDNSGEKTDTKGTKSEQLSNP
# Class 1 histone deacetylase (Homo sapiens), sequence (Q9BY41 whole entry, looked up): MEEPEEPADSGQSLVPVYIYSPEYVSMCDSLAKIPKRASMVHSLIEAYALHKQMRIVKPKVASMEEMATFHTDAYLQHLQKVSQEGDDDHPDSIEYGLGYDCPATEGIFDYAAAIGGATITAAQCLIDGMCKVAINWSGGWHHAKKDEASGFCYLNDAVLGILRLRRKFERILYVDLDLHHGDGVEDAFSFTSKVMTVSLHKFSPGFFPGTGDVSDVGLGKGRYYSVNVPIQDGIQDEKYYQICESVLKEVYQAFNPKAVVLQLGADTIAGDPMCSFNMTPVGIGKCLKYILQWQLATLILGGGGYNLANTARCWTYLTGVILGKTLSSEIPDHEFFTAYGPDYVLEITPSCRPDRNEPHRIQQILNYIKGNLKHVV
# [5] = Intrinsic clearance in mouse liver microsomes in presence of NADPH by LC-MS/MS analysis; assay type: ADME, Microsome; conditions: read-out: CLH
# [6] = molecular target: T1, Protein deacetylase HDAC6 (Homo sapiens) (UniProt Q9UBN7); assay: Inhibition of HDAC6 in human A549 cells assessed as acetyl alpha-tubulin level at 2 uM incubated for 5 hrs by western blot analysis relative to control; assay type: cell-based
# T1 sequence (whole entry): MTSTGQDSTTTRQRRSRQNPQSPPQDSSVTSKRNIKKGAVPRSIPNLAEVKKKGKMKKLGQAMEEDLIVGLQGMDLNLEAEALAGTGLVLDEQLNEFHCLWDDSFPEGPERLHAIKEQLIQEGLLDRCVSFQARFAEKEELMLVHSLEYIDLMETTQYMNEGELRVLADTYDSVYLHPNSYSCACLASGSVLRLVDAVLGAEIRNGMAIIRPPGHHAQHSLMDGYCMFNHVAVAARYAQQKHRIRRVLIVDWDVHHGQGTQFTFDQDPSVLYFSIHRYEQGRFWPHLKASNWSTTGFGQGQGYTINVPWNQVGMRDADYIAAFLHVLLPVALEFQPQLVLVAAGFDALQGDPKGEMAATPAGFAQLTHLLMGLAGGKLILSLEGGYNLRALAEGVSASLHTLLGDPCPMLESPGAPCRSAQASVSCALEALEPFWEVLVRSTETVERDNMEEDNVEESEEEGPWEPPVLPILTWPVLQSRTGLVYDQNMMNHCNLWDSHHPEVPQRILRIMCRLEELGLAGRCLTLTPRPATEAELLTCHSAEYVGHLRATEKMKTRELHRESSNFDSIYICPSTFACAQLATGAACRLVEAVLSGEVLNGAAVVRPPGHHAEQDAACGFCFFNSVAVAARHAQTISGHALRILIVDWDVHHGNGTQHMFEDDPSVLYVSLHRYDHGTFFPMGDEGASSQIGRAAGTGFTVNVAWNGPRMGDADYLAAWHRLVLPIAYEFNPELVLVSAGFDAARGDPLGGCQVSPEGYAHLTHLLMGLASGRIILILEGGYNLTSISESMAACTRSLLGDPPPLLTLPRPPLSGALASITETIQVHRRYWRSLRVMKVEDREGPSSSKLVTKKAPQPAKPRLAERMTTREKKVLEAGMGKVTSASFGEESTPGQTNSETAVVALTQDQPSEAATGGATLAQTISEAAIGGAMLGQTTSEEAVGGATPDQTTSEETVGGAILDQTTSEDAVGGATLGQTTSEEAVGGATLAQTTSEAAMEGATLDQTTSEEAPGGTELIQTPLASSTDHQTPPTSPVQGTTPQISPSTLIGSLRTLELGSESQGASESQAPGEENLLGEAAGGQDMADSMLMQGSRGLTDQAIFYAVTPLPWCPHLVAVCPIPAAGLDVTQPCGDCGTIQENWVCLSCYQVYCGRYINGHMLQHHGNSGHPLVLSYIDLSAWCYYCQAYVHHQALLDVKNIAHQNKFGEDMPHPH
# [7] = Effect on HDAC6 protein expression in human A549 cells assessed as change in HDAC6 protein expression at 0.4 uM incubated for 5 hrs followed by drug wash-out for 24 hrs by western blot analysis relative to control; assay type: functional
# [8] = molecular target: T2, Polyamine deacetylase HDAC10 (Homo sapiens, UniProt Q969S8); assay: Inhibition of N-terminal FLAG-tagged human recombinant HDAC10 (2 to 631 residues) expressed in baculovirus-infected Sf9 cells using Acetyl-Arg-His-Lys(acety1)-Lys-(acety1)-AMC as substrate peincubated with enzyme for 1 hr followed by substrate addition and measured after 30 mins by fluorescence based analysis
# T2 sequence (Q969S8 whole entry): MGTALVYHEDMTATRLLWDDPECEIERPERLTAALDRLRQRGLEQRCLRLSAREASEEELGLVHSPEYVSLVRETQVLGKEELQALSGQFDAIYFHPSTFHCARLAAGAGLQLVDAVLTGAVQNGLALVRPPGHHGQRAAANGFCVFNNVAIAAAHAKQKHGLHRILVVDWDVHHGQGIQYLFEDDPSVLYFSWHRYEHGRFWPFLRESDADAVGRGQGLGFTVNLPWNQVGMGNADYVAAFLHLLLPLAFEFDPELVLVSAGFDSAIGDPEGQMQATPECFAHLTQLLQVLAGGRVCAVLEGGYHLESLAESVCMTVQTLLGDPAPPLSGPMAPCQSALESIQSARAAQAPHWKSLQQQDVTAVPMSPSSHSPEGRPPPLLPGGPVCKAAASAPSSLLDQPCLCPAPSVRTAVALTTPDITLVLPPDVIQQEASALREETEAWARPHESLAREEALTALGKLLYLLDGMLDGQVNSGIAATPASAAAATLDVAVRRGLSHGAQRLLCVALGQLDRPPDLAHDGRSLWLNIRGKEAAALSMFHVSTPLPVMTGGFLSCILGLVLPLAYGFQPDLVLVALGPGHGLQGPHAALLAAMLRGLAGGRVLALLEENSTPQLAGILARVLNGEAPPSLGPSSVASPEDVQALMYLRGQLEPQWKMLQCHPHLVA
smiles,measurement,setting,value
O=C(NO)c1ccc(COc2no[n+]([O-])c2S(=O)(=O)c2ccccc2)cc1,Activity,RPMI-8226 [1],Active
same,remaining at 1 h,[2],0.6%
same,pIC50,Histone deacetylase 5,< 4.40
same,T/C,RPMI-8226 [3],55%
same,fold change (FC),[4],1.1
same,CLint scaled,[5],2990 mL/min/kg
same,fold change (FC),[6],4.3
same,fold change (FC),[7],1.3
same,pIC50,[8],5.74
